Experimental findings from paper PMC9405216, “Antimicrobial and Cytotoxic Cyathane-Xylosides from Cultures of the Basidiomycete Dentipellis fragilis” (Antibiotics, 2022) are described below.

Structures are written as SMILES. ≈ marks a conversion by molar mass, not a printed value. Where two headings read alike, the source gives them in different places.

Broadly, the IC50 is the point on the concentration scale where inhibition reaches its midpoint.

Common to all, as to format: cell-based
Experiment [1] deals with KB3.1 (ACC158) human endocervical adenocarcinoma. Put plainly: MTT cytotoxicity test, KB3.1. To be noted: KB 3-1, 120 h, KB3.1 human endocervical adenocarcinoma, five days incubation, n.c. = no cytotoxicity, read-out: IC50. An excerpt: (§1) A panel of mammalian cell lines was used to determine the cytotoxicity of the compounds following a previously published protocol. The assay was initially performed using the sensitive cell lines KB3.1 (human endocervical adenocarcinoma) and L929 (mouse fibroblasts). Active compounds were further tested using the cell lines MCF-7 (human breast adenocarcinoma), PC-3 (human prostate adenocarcinoma), SKOV-3 (ovarian carcinoma), A549 (human lung carcinoma), and A431 (human squamous cell carcinomas) (Table 6). The cell lines A549, KB 3.1, and L929 were cultured in DMEM (Gibco, provided by Thermo Fisher Scientific), PC-3 in F12-K (Gibco) and MC-7, and SKOV-3 and A431 in RPMI (Gibco). With the exception of A549, all cell lines were supplemented with 10% bovine serum (Gibco). All cell lines were cultured at 37 °C. The L929 and KB 3.1 cell lines were cultivated under an atmosphere of 10% (v/v) carbon dioxide. Cytotoxicity tests were then carried out using MTT (3-(4,5-dimethylthiazol-2-yl)-2,5-diphenyltetrazolium bromide) in 96-well microtiter plates. Serial dilutions of the compounds (60 µL aliquots, each with an initial concentration of 1 mg/mL) were added into 120 µL aliquots of cell suspension (50000 cells/mL) in the 96-well plates. These were incubated for five days, after which an MTT assay was performed. The absorbance was taken at 590 nm using an Elisa plate reader (Victor, Überlingen, Germany). The half-maximal inhibitory concentration (IC50), the concentration at which cell growth inhibition was 50% of the control, was calculated as described elsewhere.
On the technique in general: Tetrazolium dyes change colour on reduction, which living cells bring about.

Experiment [2] has as its system SKOV-3 (ovarian carcinoma). Put plainly: MTT cytotoxicity test, SKOV-3. Conditions: Homo sapiens, SK-OV-3, 120 h, five days incubation.
Text: as §1

For experiment [3], the system named is A431 (ACC91) human squamous cell carcinomas. Put plainly: MTT cytotoxicity test, A431. Conditions: A-431, 120 h, five days incubation.
Text: as §1

Experiment [4] deals with MCF-7 (A115) human breast adenocarcinoma. Put plainly: MTT cytotoxicity test, MCF-7. To be noted: MCF7, 120 h, MCF-7 human breast adenocarcinoma, five days incubation.
Text: as §1

In experiment [5] the test system is A549 (ACC107) human lung carcinoma. Put plainly: MTT cytotoxicity test, A549. Conditions: Homo sapiens, 120 h, five days incubation.
Text: as §1

Experiment [6] concerns Chromobacterium violaceum (DSM 30191). Put plainly: Serial dilution MIC assay, Chromobacterium violaceum. Conditions: overnight incubation, n.i. = no inhibition. As for the experimental part: (§2) Serial dilution assays in 96-well microtiter plates were performed according to our standard protocol in order to determine the minimum inhibitory concentrations (MICs) of pure isolated compounds against different microorganisms. Essentially, aliquots of compounds 1–5 and 9 (20 µL), each with an initial concentration of 1 mg/mL, were diluted in MeOH together with the respective microorganisms to concentrations ranging between 67 µg/mL and 0.5 µg/mL in the 96-well plates, followed by overnight incubation. The MIC was then determined as the lowest concentration at which no growth of the test organism was observed. A broad spectrum of clinically approved test pathogens and sensitivity indicator strains were used in the assays (Table 4 and Table 5). Ciprofloxacin, oxytetracycline, kanamycin, and gentamycin were used as positive controls against bacterial pathogens, while nystatin was used as the positive control against fungi.

The test system of experiment [7] is Schizosaccharomyces pombe (DSM 70572). Put plainly: Serial dilution MIC assay, Schizosaccharomyces pombe. To be noted: DSM70572, serial dilution 67-0.5 µg/mL, overnight incubation, n.i. = no inhibition, read-out: MIC. As for the experimental part:
as §2

Experiment [8] relates to Pseudomonas aeruginosa (DSM PA14). Put plainly: Serial dilution MIC assay, Pseudomonas aeruginosa. To be noted: serial dilution 67-0.5 µg/mL, overnight incubation, n.i. = no inhibition. As for the experimental part: as §2
The test system of experiment [9] is PC-3 (ACC465) human prostate adenocarcinoma. Put plainly: MTT cytotoxicity test, PC-3. To be noted: 120 h, PC-3 human prostate adenocarcinoma, five days incubation.
Text: as §1

The subject of experiment [10] is L929 (ACC2) mouse fibroblasts. Put plainly: MTT cytotoxicity test, L929. Conditions: 120 h, five days incubation, n.c. = no cytotoxicity, read-out: IC50.
Text: as §1

For experiment [11], the system named is Candida albicans (DSM 1665). Put plainly: Serial dilution MIC assay, Candida albicans. To be noted: overnight incubation, n.i. = no inhibition. As for the experimental part: as §2
In experiment [12] the test system is Mycolicibacterium smegmatis (ATCC 700084). Put plainly: Serial dilution MIC assay, Mycolicibacterium smegmatis. Conditions: ATCC700084, serial dilution 67-0.5 µg/mL, overnight incubation, n.i. = no inhibition, read-out: MIC. As for the experimental part:
as §2

Experiment [13] has as its system other cell lines (MCF-7, A549, PC-3, SKOV-3, A431). Put plainly: MTT cytotoxicity test, other cell lines of the panel. Conditions: range over the cell lines other than L929 and KB3.1 (Table 6).
Text: as §1, with “These were incubated for five days, after which an MTT assay was performed.” left out, “The half-maximal inhibitory concentration (IC50), the concentration at which cell growth inhibition was 50% of the control, was calculated as described elsewhere.” left out

Experiment [14] relates to Actinobacter baumannii (DSM 30008). Put plainly: Serial dilution MIC assay, Actinobacter baumannii. Conditions: serial dilution 67-0.5 µg/mL, overnight incubation, n.i. = no inhibition. As for the experimental part:
as §2

Experiment [15] concerns Bacillus subtilis (DSM 10). Put plainly: Serial dilution MIC assay, Bacillus subtilis. To be noted: DSM10, serial dilution 67-0.5 µg/mL, overnight incubation, n.i. = no inhibition, read-out: MIC. As for the experimental part:
as §2

Experiment [16] deals with Rhodotorula glutinis (DSM 10134). Put plainly: Serial dilution MIC assay, Rhodotorula glutinis. To be noted: DSM10134, serial dilution 67-0.5 µg/mL, overnight incubation, n.i. = no inhibition, read-out: MIC. As for the experimental part:
as §2

Experiment [17] deals with Mucor hiemalis (DSM 2656). Put plainly: Serial dilution MIC assay, Mucor hiemalis. Conditions: DSM2656, serial dilution 67-0.5 µg/mL, overnight incubation, n.i. = no inhibition, read-out: MIC. As for the experimental part: as §2
For experiment [18], the system named is Staphylococcus aureus (DSM 346). Put plainly: Serial dilution MIC assay, Staphylococcus aureus. Conditions: DSM346, serial dilution 67-0.5 µg/mL, overnight incubation, n.i. = no inhibition, read-out: MIC. As for the experimental part: as §2
Experiment [19] deals with Escherichia coli (DSM 1116). Put plainly: Serial dilution MIC assay, Escherichia coli. Conditions: overnight incubation, n.i. = no inhibition. As for the experimental part: as §2
For experiment [20], the system named is Pichia anomala (DSM 6766). Put plainly: Serial dilution MIC assay, Pichia anomala. To be noted: Hansenula anomala, DSM6766, serial dilution 67-0.5 µg/mL, overnight incubation, n.i. = no inhibition, read-out: MIC. As for the experimental part: as §2
The subject of experiment [21] is tested microorganisms (bacteria and fungi). Put plainly: Serial dilution MIC assays, whole panel of tested strains. Conditions: range over most tested bacterial and fungal strains; read-out: minimum inhibitory concentrations (MICs) against most tested strains. As for the experimental part:
as §2

Regarding `CC(C)C1=C2C3CC=C4C5OC6C(O)(COC7OC(C4C76O)C3(C)CCC2(C)CC1)O5` (centres unmarked) [Compound 1, dentifragilin A], the IC50 was 2.2 µM in experiment [1]; 1.9 µM in [2]; 15.8 µM in [3]; 0.7 µM in experiment [4]; 2.8 µM in [5]; 2.3 µM in [9]. Besides, the IC50 in experiment [10] is 5.8 µM; in experiment [13], 0.7 to 15.8 µM. Moreover, the MIC entry was “n.i” in experiment [6] (serial dilution 67-0.5 µg/mL); 33.3 µg/mL (≈ 77.3 µM) in experiment [7]; “n.i” in experiment [8]; “n.i” in experiment [11] (serial dilution 67-0.5 µg/mL); 66.6 µg/mL (≈ 155 µM) in experiment [12]; “n.i” in [14]. In addition, the MIC in [15] was 1 µg/mL (≈ 2.32 µM); in [16], 16.7 µg/mL (≈ 38.8 µM); in experiment [17], 16.7 µg/mL (≈ 38.8 µM); in experiment [18], 4.2 µg/mL (≈ 9.76 µM); in experiment [19] (serial dilution 67-0.5 µg/mL), “n.i”; in experiment [20], 66.6 µg/mL (≈ 155 µM).
Consider `CC(C)C1=C2[C@H]3CC=C(C=O)[C@@H]4[C@H](O[C@@H]5OC[C@@H](O)C(=O)[C@@]54O)[C@]3(C)CC[C@@]2(C)CC1` [Compound 9, striatal D], for which the IC50 in experiment [1] is 0.4 µM; in [2], 0.1 µM; in experiment [3], 1 µM; in experiment [4], 0.1 µM; in [5], 0.1 µM; in experiment [9], 0.4 µM. For the same compound, the figures for the IC50 in experiment [10] and in experiment [13] were 0.8 µM and 0.1 to 1 µM, respectively. Also, the MIC is 16.6 µg/mL (≈ 38.6 µM) in experiment [6] (DSM30191, serial dilution 67-0.5 µg/mL, read-out: MIC); 1 to 66.6 µg/mL (≈ 2.32 to 155 µM) in experiment [21]; 4.2 µg/mL (≈ 9.76 µM) in experiment [7]; “n.i” in experiment [8]; 33.3 µg/mL (≈ 77.3 µM) in experiment [11] (DSM1665, serial dilution 67-0.5 µg/mL, read-out: MIC); 33.3 µg/mL (≈ 77.3 µM) in experiment [12]. For the same compound, the MIC in [14] (read-out: MIC) was determined as 66.6 µg/mL (≈ 155 µM); in experiment [15], 1 µg/mL (≈ 2.32 µM); in experiment [16], 1 µg/mL (≈ 2.32 µM); in [17] it was 2.1 µg/mL (≈ 4.88 µM); in experiment [18], 2.1 µg/mL (≈ 4.88 µM); in experiment [19] (DSM1116, serial dilution 67-0.5 µg/mL, read-out: MIC), 66.6 µg/mL (≈ 155 µM). Further, the MIC in experiment [20] was found to be 33.3 µg/mL (≈ 77.3 µM).
